Experiments:
Format in all cases: in vivo
[1] = tested on: Plutella xylostella (Diamond Back Moth); assay: Example B3: Activity against Plutella xylostella, artificial diet; details: 120 h, application rate 200 ppm, L2 larvae, 5 days after infestation, read-out: effect in at least one of the two categories (mortality or growth inhibition)
Method: Example B3: Activity Against Plutella xylostella (Diamond Back Moth)
24-well microtiter plates with artificial diet were treated with aqueous test solutions prepared from 10′000 ppm DMSO stock solutions by pipetting. After drying, the plates were infested with L2 larvae (10 to 15 per well). The samples were assessed for mortality and growth inhibition in comparison to untreated samples 5 days after infestation.

[2] = tested on: Euschistus heros (Neotropical Brown Stink Bug); assay: Example B8: Activity against Euschistus heros, sprayed soybean leaves; details: 120 h, application rate 200 ppm, N2 nymphs, 5 days after infestation, read-out: effect in at least one of the two categories (mortality or growth inhibition)
Method: Example B8: Activity Against Euschistus heros (Neotropical Brown Stink Bug)
Soybean leaves on agar in 24-well microtiter plates were sprayed with aqueous test solutions prepared from 10′000 ppm DMSO stock solutions. After drying the leaves were infested with N2 nymphs. The samples were assessed for mortality and growth inhibition in comparison to untreated samples 5 days after infestation.

[3] = tested on: Spodoptera littoralis (Egyptian cotton leaf worm); assay: Example B2: Activity against Spodoptera littoralis, systemic via lettuce roots in agar; details: 144 h, test rate 12.5 ppm, uptake by lettuce roots from agar, 6 days after infestation, read-out: effect in at least one of the three categories (mortality, anti-feeding, or growth inhibition)
Description: Example B2: Activity against Spodoptera littoralis (Egyptian cotton leaf worm) Test compounds were applied by pipette from 10′000 ppm DMSO stock solutions into 24-well plates and mixed with agar. Lettuce seeds were placed onto the agar and the multi well plate was closed by another plate which contained also agar. After 7 days the compound was absorbed by the roots and the lettuce grew into the lid plate. The lettuce leaves were then cut off into the lid plate. Spodoptera eggs were pipetted through a plastic stencil onto a humid gel blotting paper and the lid plate was closed with it. The samples were assessed for mortality, anti-feedant effect and growth inhibition in comparison to untreated samples 6 days after infestation.

[4] = tested on: Diabrotica Balteata (Corn Root Worm); assay: Example B4: Activity against Diabrotica balteata, sprayed maize sprouts; details: 96 h, application rate 200 ppm, L2 larvae, 4 days after infestation, read-out: effect in at least one of the two categories (mortality or growth inhibition)
Method: Example B4: Activity Against Diabrotica Balteata (Corn Root Worm)
Maize sprouts, placed onto an agar layer in 24-well microtiter plates were treated with aqueous test solutions prepared from 10′000 ppm DMSO stock solutions by spraying. After drying, the plates were infested with L2 larvae (6 to 10 per well). The samples were assessed for mortality and growth inhibition in comparison to untreated samples 4 days after infestation.

[5] = tested on: Spodoptera littoralis (Egyptian cotton leaf worm); assay: Example B1: Activity against Spodoptera littoralis, sprayed cotton leaf discs; details: foliar, 72 h, application rate 200 ppm, L1 larvae, 3 days after infestation
Method: Example B1: Activity against Spodoptera littoralis (Egyptian cotton leaf worm) Cotton leaf discs were placed onto agar in 24-well microtiter plates and sprayed with aqueous test solutions prepared from 10′000 ppm DMSO stock solutions. After drying the leaf discs were infested with five L1 larvae. The samples were assessed for mortality, anti-feeding effect, and growth inhibition in comparison to untreated samples 3 days after infestation. Control of Spodoptera littoralis by a test sample is given when at least one of the categories mortality, anti-feedant effect, and growth inhibition is higher than the untreated sample.

[6] = tested on: Myzus persicae (Green Peach Aphid); assay: Example B5: Activity against Myzus persicae, sprayed sunflower leaf discs; details: foliar, 144 h, application rate 200 ppm, mixed-age aphids, 6 days after infestation
Method: Example B5: Activity Against Myzus persicae (Green Peach Aphid)
Sunflower leaf discs were placed onto agar in a 24-well microtiter plate and sprayed with aqueous test solutions prepared from 10′000 ppm DMSO stock solutions. After drying, the leaf discs were infested with an aphid population of mixed ages. The samples were assessed for mortality 6 days after infestation.

[7] = tested on: Bemisia tabaci (Cotton White Fly); assay: Example B7: Activity against Bemisia tabaci, sprayed cotton leaf discs; details: foliar, 144 h, application rate 200 ppm, adult white flies, 6 days after incubation
Method: Example B7: Activity Against Bemisia tabaci (Cotton White Fly)
Cotton leaf discs were placed onto agar in 24-well microtiter plates and sprayed with aqueous test solutions prepared from 10′000 ppm DMSO stock solutions. After drying the leaf discs were infested with adult white flies. The samples were checked for mortality 6 days after incubation.

[8] = tested on: Myzus persicae (Green Peach Aphid); assay: Example B6: Activity against Myzus persicae, systemic via pea seedling roots; details: 144 h, test rate 24 ppm, roots of infested pea seedlings in test solution, 6 days
Method: Example B6: Activity Against Myzus persicae (Green Peach Aphid)
Roots of pea seedlings infested with an aphid population of mixed ages were placed directly in the aqueous test solutions prepared from 10′000 DMSO stock solutions. The samples were assessed for mortality 6 days after placing seedlings in test solutions.

CCS(=O)(=O)c1ccc(-n2cncn2)nc1-n1cc2cnc(C(F)(F)F)cc2n1 [Compound P3, 2-[3-ethylsulfonyl-6-(1,2,4-triazol-1-yl)-2-pyridyl]-6-(trifluoromethyl)pyrazolo[4,3-c]pyridine]
≥ 80%: percent effect (mortality or growth inhibition) at 200 ppm [1] | percent effect (mortality or growth inhibition) at 200 ppm [2] | percent effect (mortality, anti-feeding or growth inhibition) at 12.5 ppm [3] | percent effect (mortality or growth inhibition) at 200 ppm [4] | percent control (mortality, anti-feedant effect or growth inhibition) at 200 ppm [5] | mortality at 200 ppm [6]

CCS(=O)(=O)c1ccc(-n2cccn2)nc1-n1nc2cc(C(F)(F)F)ncc2c1Cl [Compound P11]
≥ 80%: mortality at 200 ppm [7]

CCS(=O)(=O)c1ccc(NC)nc1-n1cc2cnc(C(F)(F)F)cc2n1 [Compound P15]
≥ 80%: percent effect (mortality or growth inhibition) at 200 ppm [1] | percent effect (mortality or growth inhibition) at 200 ppm [2] | percent effect (mortality, anti-feeding or growth inhibition) at 12.5 ppm [3] | percent effect (mortality or growth inhibition) at 200 ppm [4] | percent control (mortality, anti-feedant effect or growth inhibition) at 200 ppm [5] | mortality at 200 ppm [6]

CCS(=O)(=O)c1ccc(N)nc1-n1cc2cnc(C(F)(F)F)cc2n1 [Compound P16, 5-ethylsulfonyl-6-[6-(trifluoromethyl)pyrazolo[4,3-c]pyridin-2-yl]pyridin-2-amine]
≥ 80%: mortality at 24 ppm [8] | percent effect (mortality or growth inhibition) at 200 ppm [1] | percent effect (mortality or growth inhibition) at 200 ppm [2] | percent effect (mortality, anti-feeding or growth inhibition) at 12.5 ppm [3] | percent effect (mortality or growth inhibition) at 200 ppm [4] | percent control (mortality, anti-feedant effect or growth inhibition) at 200 ppm [5] | mortality at 200 ppm [6]

CCS(=O)(=O)c1cc(Cl)c(N)nc1-n1cc2cnc(C(F)(F)F)cc2n1 [Compound P19, 3-chloro-5-ethylsulfonyl-6-[6-(trifluoromethyl)pyrazolo[4,3-c]pyridin-2-yl]pyridin-2-amine]
≥ 80%: percent effect (mortality or growth inhibition) at 200 ppm [1] | percent effect (mortality or growth inhibition) at 200 ppm [2] | percent effect (mortality, anti-feeding or growth inhibition) at 12.5 ppm [3] | percent effect (mortality or growth inhibition) at 200 ppm [4] | percent control (mortality, anti-feedant effect or growth inhibition) at 200 ppm [5] | mortality at 200 ppm [6]

CCS(=O)(=O)c1ccc(-n2cncn2)nc1-n1nc2cc(C(F)(F)F)ncc2c1C [Compound P22, 2-[3-ethylsulfonyl-6-(1,2,4-triazol-1-yl)-2-pyridyl]-3-methyl-6-(trifluoromethyl)pyrazolo[4,3-c]pyridine]
≥ 80%: percent effect (mortality or growth inhibition) at 200 ppm [1] | percent effect (mortality, anti-feeding or growth inhibition) at 12.5 ppm [3] | percent effect (mortality or growth inhibition) at 200 ppm [4] | percent control (mortality, anti-feedant effect or growth inhibition) at 200 ppm [5] | mortality at 200 ppm [6]

CCS(=O)(=O)c1ccc(-n2cnc(Cl)n2)nc1-n1cc2cnc(C(F)(F)F)cc2n1 [Compound P25]
≥ 80%: percent effect (mortality or growth inhibition) at 200 ppm [1] | percent effect (mortality or growth inhibition) at 200 ppm [2] | percent effect (mortality or growth inhibition) at 200 ppm [4] | mortality at 200 ppm [7] | percent control (mortality, anti-feedant effect or growth inhibition) at 200 ppm [5] | mortality at 200 ppm [6]
